Measurements taken from patent publication US8053444B2 (Lek Pharmaceuticals d.d., priority 2007, dated 2011).

Legend:
[1] = Stress stability testing in vials, sirolimus impurities by HPLC; assay type: physicochemical; set-up: Total sum of impurities / Max.unknown impurity: unit not given here
Method: The origination of a solid solution of sirolimus was checked by X-ray diffraction analysis and Raman microscopy. […] These were exposed then to stress stability testing at 60° C. for 14 days and at 40° C. and 75% relative humidity for one month in vials. The amount of degradation products formed was compared to the samples of commercially available tablets comprising sirolimus.
The HPLC analyses were performed with a Waters system equipped with a Synergi Max-RP, 5 μm, 250×4.6 mm column which was maintained in a column oven at 40° C. The mobile phase consisted of a 40:54:6 (V/V/V) mixture of CF3COOH/NaOH with pH 2.5, acetonitrile and water. The flow rate was 1.4 mL/min, and the detection wavelength was 278 nm.
For the stability studies, two solid solutions were prepared using ethanol-soluble polymers polyvinylpyrrolidone (PVP) or hydroxypropylcellulose (HPC). The chemical stability was monitored for 14 days at 60° C. and 1 month at 40° C. and 75% relative humidity. The samples were stored in vials.

[2] = as above; assay type: physicochemical; set-up: unit not given here; settings: 7 days, 60° C.
[3] = Solubility of sirolimus in water; settings: volume of 250 ml of gastrointestinal fluid
[4] = 1 month, 40° C./75% relative humidity, in vials

Compound	chemical stability of sirolimus, comparison in words ([1]; stress stability testing, comparison between samples of Table 3)	Max.unknown impurity ([1]; time of testing 0)	Total sum of impurities ([1]; time of testing 0)	Max.unknown impurity [2]	Total sum of impurities [2]	amount of sirolimus dissolved in gastrointestinal fluid [3]	Max.unknown impurity [1, 4]	Total sum of impurities [1, 4]	Max.unknown impurity ([1]; 14 days, 60° C., in vials)	Total sum of impurities ([1]; 14 days, 60° C., in vials)
CO[C@H]1C[C@@H]2CC[C@@H](C)[C@@](O)(O2)C(=O)C(=O)N2CCCC[C@H]2C(=O)O[C@H]([C@H](C)C[C@@H]2CC[C@@H](O)[C@H](OC)C2)CC(=O)[C@H](C)/C=C(\C)[C@@H](O)[C@@H](OC)C(=O)[C@H](C)C[C@H](C)/C=C/C=C/C=C/1C [Example 1, sirolimus]	significantly less stable	0.25	3.34	1.91	9.09	–	–	–	–	–
CO[C@H]1C[C@@H]2CC[C@@H](C)[C@@](O)(O2)C(=O)C(=O)N2CCCC[C@H]2C(=O)O[C@H]([C@H](C)C[C@@H]2CC[C@@H](O)[C@H](OC)C2)CC(=O)[C@H](C)/C=C(\C)[C@@H](O)[C@@H](OC)C(=O)[C@H](C)C[C@H](C)/C=C/C=C/C=C/1C [Sirolimus, (3S,6R,7E,9R,10R,12R,14S,15E,17E,19E,21S,23S,26R,27R,34aS)-9,10,12,13, -14,21,22,23,24,25,26,27,32,33,34,34a-hexadecahydro-9,27-dihydroxy-3-[(1R)-2-[(1S,3R,4R)-4-hydroxy-3-methoxycyclohexyl]-1-methylethyl]-10,21-dimethox-y-6,8,12,14,20,26-hexamethyl-23,27-epoxy-3H-pyrido[2,1-c][1,4]oxaazacycloh-entriacontine-1,5,11,28,29(4H,6H,31H)-pentone]	–	–	–	–	–	about 0.65 mg	–	–	–	–
CO[C@H]1C[C@@H]2CC[C@@H](C)[C@@](O)(O2)C(=O)C(=O)N2CCCC[C@H]2C(=O)O[C@H]([C@H](C)C[C@@H]2CC[C@@H](O)[C@H](OC)C2)CC(=O)[C@H](C)/C=C(\C)[C@@H](O)[C@@H](OC)C(=O)[C@H](C)C[C@H](C)/C=C/C=C/C=C/1C [Substance in a crystal form, sirolimus]	–	0.19	0.70	–	–	–	0.26	0.59	0.26	0.60
